Assays:
Pim-3 = Pim-3 (Homo sapiens, UniProt Q86V86); experiment: In vitro assay of Pim-3 kinase activity (His-Bad phosphorylation, ELISA with anti-pBad Ser112 antibody); assay type: biochemical; details: 0, 20, 40, 80, 160 μmol/l compound; 10 μmol/l ATP; 30° C. 1 hour; FIG. 1
Description: A His-Bad protein solution (3 μg/ml) diluted with a carbonate buffer (pH 9.6) (15 mmol/l Na2CO3(Wako), […] NaHCO3 (Wako), 0.02% (w/v) NaN3 (Wako), pH 9.6) was added at 100 μl/well to a 96-well microplate (Nunc-Immuno™ Plate, NUNC Brand Products, Nalge Nunc International, Denmark), and the plate was coated at 4° C. overnight. The plate was washed 3 times on the following day, a 1% BSA/PBS(−) solution was added at 150 μl/well, the plate was blocked at 37° C. for 1 hour, and the plate was then washed 3 times. A kinase buffer containing 19.2 nmol/l thioredoxin-hexahistidine-Pim-3 fusion protein, 10 μmol/l ATP (Cell Signaling), and Compounds 5, 7, and 12 synthesized in the examples above (0, 20, 40, 80, and 160 μmol/l) (25 mmol/l Tris-HCl (pH 7.5), 10 mmol/l MgCl2, 0.1 mmol/l Na3VO4, 2 mmol/l dithiothreitol (DTT), 5 mmol/l s-glycerophosphate, Cell Signaling) was added at 40 μl/well to the treated plate. After the reaction was carried out at 30° C. for 1 hour, the plate was washed 5 times, the 1.000-fold diluted anti-pBadser112 rabbit antibody (Cell Signaling) was added at 100 μl/well, and the reaction was carried out at 37° C. for 1 hour. […] The plate was subjected to the absorbance assay at 405 nm using a microplate reader (Model 550, Bio-Rad). […]

HuH7 = experiment: Cell growth assay (liver cancer cell), WST-1; assay type: cell-based, human; details: 4, 6, 8, 10 μmol/l, 0-96 hours, FIG. 8
Description: (§1) Human liver cancer cell lines (Hep3B, HuH7, and HepG2 at 4000, 3000, and 4000 cells/well) were dispensed into a 96-well cell culture Microtest Plate (Becton Dickinson) with 100 μl of culture media. The media were removed 16 to 18 hours after the initiation of culture, and media containing the test compounds (0.1% DMSO, Compound 7 (4, 6, 8, and 10 μmol/l)) were added at 100 μl/well. After culture was continued for 0, 24, 48, 72, and 96 hours, the medium containing the test compound was removed, and a 10% WST-1 medium (Roche) was added at 100 μl/well. After culture was conducted for an additional 1 hour, the absorbance at 450 nm was assayed using a microplate reader (Model 550, Bio-Rad). RPMI-1640 medium (SIGMA) was used, and 10% calf serum (Invitrogen), 50 U/ml penicillin G (SIGMA), and 50 μg/ml streptomycin (SIGMA) were added to the medium. The cell lines were cultured in a 37° C. 5% CO2 carbon dioxide incubator (ESPEC).

Hep3B = experiment: Cell growth assay (liver cancer cell), WST-1; assay type: cell-based, human; details: 4, 6, 8, 10 μmol/l, 0-96 hours, FIG. 8
Description: as §1

HepG2 = experiment: Cell growth assay (liver cancer cell), WST-1; assay type: cell-based, human; details: 4, 6, 8, 10 μmol/l, 0-96 hours, FIG. 8
Description: as §1

PCI66 cell line = experiment: Cell growth assay (pancreatic cancer cell), WST-1; assay type: cell-based, human; details: Compound 7 4-10 μmol/l, Compound 12 5-30 μmol/l, 0-96 hours, FIG. 7
Description: (§2) Human pancreatic cancer cell lines (PCI35, PCI55, PCI66, MiaPaCa-2, L3.6 […], and PANC-1) were dispensed into a 96-well cell culture Microtest Plate (Becton Dickinson) at 3,000 cells/well with 100 μl of culture media. The media were removed 16 to 18 hours after the initiation of culture, and media containing the test compounds (i.e., 0.1% DMSO, Compound 7 (4, 6, 8, 10 μmol/l), Compound 12 (5, 10, 20, 30 μmol/l)) were added at 100 μl/well. After culture was continued for 0, 24, 48, 72, and 96 hours, the medium containing the test compound was removed, and a 10% WST-1 medium (Roche) was added at 100 μl/well. After culture was conducted for an additional 1 hour, the absorbance at 450 nm was assayed using a microplate reader (Model 550, Bio-Rad). RPMI-1640 medium (SIGMA) was used for the PCI35, PCI55, PCI66, MiaPaCa-2, and PANC-1 cell lines, MEM medium (Invitrogen) was used for the L3.6 pl cell lines, and 10% calf serum (Invitrogen), 50 U/ml penicillin G (SIGMA), and 50 μg/ml streptomycin (SIGMA) were added to every medium. The cell lines were cultured in a 37° C. 5% CO2 carbon dioxide incubator (ESPEC).

MiaPaCa-2 cell line = experiment: Cell growth assay (pancreatic cancer cell), WST-1; assay type: cell-based, human; details: Compound 7 4-10 μmol/l, Compound 12 5-30 μmol/l, 0-96 hours, FIG. 6
Description: as §2

PANC-1 cell line = experiment: Cell growth assay (pancreatic cancer cell), WST-1; assay type: cell-based, human; details: Compound 7 4-10 μmol/l, Compound 12 5-30 μmol/l, 0-96 hours, FIG. 4
Description: as §2

PCI55 cell line = experiment: Cell growth assay (pancreatic cancer cell), WST-1; assay type: cell-based, human; details: Compound 7 4-10 μmol/l, Compound 12 5-30 μmol/l, 0-96 hours, FIG. 3
Description: as §2

PCI35 cell line = experiment: Cell growth assay (pancreatic cancer cell), WST-1; assay type: cell-based, human; details: Compound 7 4-10 μmol/l, Compound 12 5-30 μmol/l, 0-96 hours, FIG. 2
Description: as §2

L3.6 pl cell line = experiment: Cell growth assay (pancreatic cancer cell), WST-1; assay type: cell-based, human; details: Compound 7 4-10 μmol/l, Compound 12 5-30 μmol/l, 0-96 hours, FIG. 5
Description: as §2

HT29 = experiment: Cell growth assay (colon cancer cell), WST-1; assay type: cell-based, human; details: 4, 6, 8, 10 μmol/l, 0-96 hours, FIG. 9
Description: (§3) Human colon cancer cell lines (SW48, SW480, and HT29 at 3,000 cells/well) were dispensed into a 96-well cell culture Microtest Plate (Becton Dickinson) with 100 μl of culture media. The media were removed 16 to 18 hours after the initiation of culture, and the media containing the test compounds (0.1% DMSO, Compound 7 (4, 6, 8, and 10 μmol/l)) were added at 100 μl/well. After culture was continued for 0, 24, 48, 72, and 96 hours, the medium containing the test compound was removed, and a 10% WST-1 medium (Roche) was added at 100 μl/well. After culture was conducted for an additional 1 hour, the absorbance at 450 nm was assayed using a microplate reader (Model 550, Bio-Rad). RPMI-1640 medium (SIGMA) was used, and 10% calf serum (Invitrogen), 50 U/ml penicillin G (SIGMA), and 50 μg/ml streptomycin (SIGMA) were added to the medium. The cell lines were cultured in a 37° C. 5% CO2 carbon dioxide incubator (ESPEC).

SW480 = experiment: Cell growth assay (colon cancer cell), WST-1; assay type: cell-based, human; details: 4, 6, 8, 10 μmol/l, 0-96 hours, FIG. 9
Description: as §3

SW48 = experiment: Cell growth assay (colon cancer cell), WST-1; assay type: cell-based, human; details: 4, 6, 8, 10 μmol/l, 0-96 hours, FIG. 9
Description: as §3

Row | SMILES | inhibition of Pim-3 activity (Pim-3) | inhibition of cell growth (HuH7) | inhibition of cell growth (Hep3B) | inhibition of cell growth (HepG2) | inhibition of cell growth (PCI66 cell line) | inhibition of cell growth (MiaPaCa-2 cell line) | inhibition of cell growth (PANC-1 cell line) | inhibition of cell growth (PCI55 cell line) | inhibition of cell growth (PCI35 cell line) | inhibition of cell growth (L3.6 pl cell line) | inhibition of cell growth (HT29) | inhibition of cell growth (SW480) | inhibition of cell growth (SW48) | melting point
1 | O=C1CC[C@@]23C(=O)CC[C@@H]2CCCCN13 [Compound 5] | inhibit the Pim-3 activity in a concentration-dependent manner | – | – | – | – | – | – | – | – | – | – | – | – | –
2 | CCOC(=O)C#C[C@@]1(O)/C(=C/c2ccccc2)C[C@@H]2CCCCN3C(=O)CC[C@]231 [Compound 7] | inhibit the Pim-3 activity in a concentration-dependent manner | inhibit the growth | inhibit the growth | inhibit the growth | inhibit the growth | inhibit the growth | inhibit the growth | inhibit the growth | inhibit the growth | inhibit the growth | inhibit the growth | inhibit the growth | inhibit the growth | 209 to 211 °C
